# Experimental data as given in patent US20130345214A1, “Lipoxygenase Inhibitors” (SRI International, Inc., priority 2011, published 2013).
# Entries after “also recorded” stand apart in the source; their conditions may differ.
# How the values were obtained:
# human 12-LOX = biological target: T1, human 12-LOX (Homo sapiens, UniProt P18054); test: colorimetric platelet 12-LOX activity assay (ferric oxidation of xylenol orange, human blood platelets); format: cell-based
# T1 construct: ferric oxidation of xylenol orange from arachidonic acid in human blood platelets; endogenous in cells; host or cells: human blood platelets
# T1 sequence (P18054 1-663): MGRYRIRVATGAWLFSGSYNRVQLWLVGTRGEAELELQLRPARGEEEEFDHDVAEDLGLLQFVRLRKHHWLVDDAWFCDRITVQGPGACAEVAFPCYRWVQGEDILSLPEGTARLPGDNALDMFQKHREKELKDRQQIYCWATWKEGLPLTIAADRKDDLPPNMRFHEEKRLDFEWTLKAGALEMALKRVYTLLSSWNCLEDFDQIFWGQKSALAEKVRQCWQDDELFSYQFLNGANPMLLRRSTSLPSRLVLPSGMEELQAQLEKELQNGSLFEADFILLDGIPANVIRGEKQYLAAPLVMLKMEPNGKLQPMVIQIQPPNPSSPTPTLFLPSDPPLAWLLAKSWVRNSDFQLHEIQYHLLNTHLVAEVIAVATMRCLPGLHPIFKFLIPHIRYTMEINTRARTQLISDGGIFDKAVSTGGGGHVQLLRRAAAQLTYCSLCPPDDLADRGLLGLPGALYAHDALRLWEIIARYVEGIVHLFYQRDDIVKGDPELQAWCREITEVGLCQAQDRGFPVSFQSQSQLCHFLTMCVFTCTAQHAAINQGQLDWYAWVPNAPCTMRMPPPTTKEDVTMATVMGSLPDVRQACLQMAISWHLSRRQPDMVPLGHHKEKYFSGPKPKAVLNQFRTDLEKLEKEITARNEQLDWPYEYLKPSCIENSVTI
# From the text: (§1) Table 3 provides results for exemplary subject bisindole compounds on 5-LOX, 12-LOX and 15-LOX.
# 15-LOX-2 = biological target: T2, 15-LOX-2 (Homo sapiens, UniProt O15296); test: in vitro 15-LOX-2 inhibition (Table 3); format: biochemical
# T2 sequence (O15296 1-676): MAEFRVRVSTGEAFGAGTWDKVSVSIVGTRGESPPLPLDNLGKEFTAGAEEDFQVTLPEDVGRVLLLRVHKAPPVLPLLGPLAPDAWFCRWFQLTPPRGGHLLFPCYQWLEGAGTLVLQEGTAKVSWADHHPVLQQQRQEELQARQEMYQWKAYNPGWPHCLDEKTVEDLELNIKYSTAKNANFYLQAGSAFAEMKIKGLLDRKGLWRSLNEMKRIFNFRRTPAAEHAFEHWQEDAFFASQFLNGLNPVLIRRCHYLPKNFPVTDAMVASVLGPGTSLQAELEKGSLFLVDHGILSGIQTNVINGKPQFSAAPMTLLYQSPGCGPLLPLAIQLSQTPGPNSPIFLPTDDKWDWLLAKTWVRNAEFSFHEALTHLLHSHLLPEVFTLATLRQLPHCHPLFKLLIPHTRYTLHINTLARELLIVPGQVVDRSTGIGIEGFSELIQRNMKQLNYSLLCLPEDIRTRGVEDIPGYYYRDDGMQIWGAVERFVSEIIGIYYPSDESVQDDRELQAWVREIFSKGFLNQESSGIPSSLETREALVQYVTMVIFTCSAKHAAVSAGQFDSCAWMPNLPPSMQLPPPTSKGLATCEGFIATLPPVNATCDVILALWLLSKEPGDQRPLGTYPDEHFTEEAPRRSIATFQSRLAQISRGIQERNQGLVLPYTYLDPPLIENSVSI
# From the text: as §1
# 5-LOX [1] = biological target: T3, 5-LOX (Homo sapiens, UniProt P09917); test: fluorescence-based enzyme assay of human 5-LOX (Table 3); format: biochemical
# T3 sequence (P09917 1-674): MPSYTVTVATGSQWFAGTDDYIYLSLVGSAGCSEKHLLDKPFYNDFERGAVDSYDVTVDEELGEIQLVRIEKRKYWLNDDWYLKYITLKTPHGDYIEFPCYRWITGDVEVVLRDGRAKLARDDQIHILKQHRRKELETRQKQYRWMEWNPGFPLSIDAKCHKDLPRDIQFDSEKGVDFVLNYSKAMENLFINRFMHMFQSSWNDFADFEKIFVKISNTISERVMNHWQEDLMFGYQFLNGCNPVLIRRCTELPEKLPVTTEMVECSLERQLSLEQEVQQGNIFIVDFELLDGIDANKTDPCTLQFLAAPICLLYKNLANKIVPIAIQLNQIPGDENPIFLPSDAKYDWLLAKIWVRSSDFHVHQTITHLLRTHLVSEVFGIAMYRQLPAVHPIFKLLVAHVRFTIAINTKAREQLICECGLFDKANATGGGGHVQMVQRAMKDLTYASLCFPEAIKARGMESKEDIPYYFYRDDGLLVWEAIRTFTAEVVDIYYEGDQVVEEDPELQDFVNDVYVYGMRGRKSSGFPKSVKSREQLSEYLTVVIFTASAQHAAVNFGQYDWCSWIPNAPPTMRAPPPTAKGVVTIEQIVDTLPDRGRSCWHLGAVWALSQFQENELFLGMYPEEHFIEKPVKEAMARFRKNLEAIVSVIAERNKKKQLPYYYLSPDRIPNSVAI
# From the text: as §1
# COX-2 = biological target: T4, COX-2 (Homo sapiens, UniProt P35354); test: effect on cyclooxygenase COX-2 activity; format: biochemical
# T4 sequence (P35354 18-604): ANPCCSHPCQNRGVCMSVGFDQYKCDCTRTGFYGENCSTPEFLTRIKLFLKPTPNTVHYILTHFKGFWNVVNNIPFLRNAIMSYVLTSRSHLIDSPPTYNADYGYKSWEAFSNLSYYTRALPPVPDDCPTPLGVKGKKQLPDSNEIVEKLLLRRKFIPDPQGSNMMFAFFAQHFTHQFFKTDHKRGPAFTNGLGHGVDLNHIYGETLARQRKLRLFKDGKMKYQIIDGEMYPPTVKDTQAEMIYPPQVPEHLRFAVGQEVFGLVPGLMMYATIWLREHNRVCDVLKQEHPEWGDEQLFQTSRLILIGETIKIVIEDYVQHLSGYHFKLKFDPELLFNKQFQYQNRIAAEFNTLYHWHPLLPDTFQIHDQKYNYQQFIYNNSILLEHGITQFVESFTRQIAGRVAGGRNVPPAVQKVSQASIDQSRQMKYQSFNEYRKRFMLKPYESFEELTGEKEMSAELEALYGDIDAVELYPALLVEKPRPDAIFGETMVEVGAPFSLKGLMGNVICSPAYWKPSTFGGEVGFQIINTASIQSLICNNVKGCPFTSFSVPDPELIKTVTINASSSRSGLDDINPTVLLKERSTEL
# COX-1 = COX-1 (Homo sapiens, UniProt P23219); test: effect on cyclooxygenase COX-1 activity; format: biochemical
# 15-LOX = test: enzyme panel screening, 15-LOX; format: biochemical
# 5-LOX [2] = biological target: T3, 5-LOX; test: enzyme panel screening, 5-LOX; format: biochemical
# [3] = glucose metabolism and body weight in mice after oral treatment; format: in vivo
# Akt and ERK activation = test: Akt and ERK activation; format: cell-based; settings: by inhibiting 12-LOX mediated metabolism of arachidonic acid
# [4] = biological target: kinase targets, including Akt(1,2,3), PI3K, and PDK1; test: kinase panel screening; format: biochemical; settings: broad selection of kinase targets incl. Akt(1,2,3)
# COX-1, sequence (P23219 24-599): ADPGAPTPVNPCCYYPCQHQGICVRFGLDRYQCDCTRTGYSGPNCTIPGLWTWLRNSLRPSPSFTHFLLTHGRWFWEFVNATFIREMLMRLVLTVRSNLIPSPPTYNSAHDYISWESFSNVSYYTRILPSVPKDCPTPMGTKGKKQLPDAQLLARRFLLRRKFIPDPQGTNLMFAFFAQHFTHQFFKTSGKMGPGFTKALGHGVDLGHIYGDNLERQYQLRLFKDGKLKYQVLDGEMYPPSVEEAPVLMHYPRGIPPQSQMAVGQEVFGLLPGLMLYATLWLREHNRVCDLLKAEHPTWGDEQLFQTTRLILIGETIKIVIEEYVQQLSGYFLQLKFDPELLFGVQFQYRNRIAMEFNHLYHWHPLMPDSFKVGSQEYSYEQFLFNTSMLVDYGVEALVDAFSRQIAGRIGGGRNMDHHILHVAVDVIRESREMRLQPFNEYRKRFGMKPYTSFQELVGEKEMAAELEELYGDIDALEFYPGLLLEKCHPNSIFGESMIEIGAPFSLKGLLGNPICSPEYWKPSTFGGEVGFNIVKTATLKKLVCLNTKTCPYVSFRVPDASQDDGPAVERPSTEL
SMILES,inhibition at 3 µM (human 12-LOX; 3 μM) [%],inhibition at 3 µM (15-LOX-2) [%],inhibition at 3 µM (5-LOX [1]; 3 μM) [%],other results
Fc1ccc2[nH]c3c(OC[C@@H]4CCCN4)c4[nH]c5ccc(F)cc5c4cc3c2c1,88,55,92,–
Fc1ccc2[nH]c3c(OC[C@H]4CCCN4)c4[nH]c5ccc(F)cc5c4c(Cl)c3c2c1,80,45,91,–
Cl.Fc1ccc2[nH]c3c(OCC4CCCN4)c4[nH]c5ccc(F)cc5c4cc3c2c1 (centres unmarked),–,–,–,12-LOX % Inhibition at 3 μM (human 12-LOX; 3 μM): 77%; 15-LOX-2 % Inhibition at 3 μM (15-LOX-2; 3 µM): 63%; 5-LOX % Inhibition at 3 μM (5-LOX [1]; 3 μM): 95%
Cc1c2[nH]c3ccccc3c2cc2c1[nH]c1ccccc12,76,16,52,–
CCN(CC)CCOC(=O)c1ccc2[nH]c3c(OC)c4[nH]c5ccc(C(=O)OCCN(CC)CC)cc5c4cc3c2c1,–,–,–,inhibition at 10 µM (human 12-LOX; 10 μM (footnote *)): 12%; inhibition at 10 µM (5-LOX [1]; 10 μM (footnote *)): 80%
CCOC(=O)c1ccc2[nH]c3c(OC)c4[nH]c5ccc(C(=O)OCC)cc5c4cc3c2c1 [Compound (1)],–,–,–,"12-LOX enzyme activity inhibition (human 12-LOX; 10 uM, human blood platelets, cell-based assay): inhibit 12-LOX enzyme activity; IC50 (human 12-LOX; cell-based enzyme assay): 10 nM; selectivity for 12-LOX (human 12-LOX; versus panels of kinases and enzymes incl. 5-LOX and 15-LOX): selective for 12-LOX; also recorded: selectively inhibits 12-lipoxygenase enzyme activity; also recorded: selectively inhibits human 12-LOX; effect on COX-2 activity (COX-2): does not significantly affect the activity; effect on COX-1 activity (COX-1): does not significantly affect the activity; effect on 15-LOX activity (15-LOX): does not significantly affect the activity; effect on 5-LOX activity (5-LOX [2]): does not significantly affect the activity; effects on glucose metabolism [3]: no adverse effects on glucose metabolism; effects on body weights ([3]; oral, 500 mg/kg/day, 14 days): no adverse effects; effects on fasting glucose levels ([3]; oral, 500 mg/kg/day, 14 days): no adverse effects; Akt and ERK activation (Akt and ERK activation): inhibit Akt and ERK activation; kinase inhibition [4]: not a kinase inhibitor"
CN(C)CCOc1c2[nH]c3ccc(F)cc3c2cc2c1[nH]c1ccc(F)cc12 [drawing 7],78,46,90,–
Clc1ccc2[nH]c3c(OCCCn4cncn4)c4[nH]c5ccc(Cl)cc5c4cc3c2c1 [drawing 8],89,25,85,–
Nc1nnn(CCOc2c3[nH]c4ccc(Cl)cc4c3cc3c2[nH]c2ccc(Cl)cc23)n1 [drawing 9],77,19,70,–
Nc1nnnn1CCOc1c2[nH]c3ccc(Cl)cc3c2cc2c1[nH]c1ccc(Cl)cc12 [drawing 10],73,24,85,–
N=C(N)NCCCOc1c2[nH]c3ccc(F)cc3c2cc2c1[nH]c1ccc(F)cc12 [drawing 11],79,66,95,–
Fc1ccc2[nH]c3c(OC4CCNC4)c4[nH]c5ccc(F)cc5c4cc3c2c1 (centres unmarked) [drawing 12],80,51,86,–
Clc1ccc2[nH]c3c(OCC4CCCN4)c4[nH]c5ccc(Cl)cc5c4cc3c2c1 (centres unmarked) [drawing 13],79,43,79,–
Fc1ccc2[nH]c3c(OCC4CCCN4)c4[nH]c5ccc(F)cc5c4cc3c2c1 (centres unmarked) [drawing 14],78,61,94,–
Fc1ccc2[nH]c3c(OCC4CCCN4)c4[nH]c5ccc(F)cc5c4c(C(F)(F)F)c3c2c1 (centres unmarked) [drawing 17],77,17,77,–
CN(C)CCOc1c2[nH]c3ccc(F)cc3c2c(Cl)c2c1[nH]c1ccc(F)cc12 [drawing 18],85,17,75,–
Fc1ccc2[nH]c3c(OC[C@@H]4C[C@H](F)CN4)c4[nH]c5ccc(F)cc5c4cc3c2c1 [drawing 19],87,41,87,–
CCOC(=O)c1ccc2[nH]c3c(O[C@H]4CCNC4)c4[nH]c5ccc(C(=O)OCC)cc5c4cc3c2c1 [drawing 20],75,10,37,–
